This passage reports IC50, inhibition and Activity results from ChEMBL document CHEMBL3421542, “Pure Diastereomers of a Tranylcypromine-Based LSD1 Inhibitor: Enzyme Selectivity and In-Cell Studies” (ACS Med Chem Lett, 2015).

The target of series [1] is T1, Amine oxidase [flavin-containing] B (Homo sapiens, UniProt P27338).
T1 sequence (P27338 whole entry): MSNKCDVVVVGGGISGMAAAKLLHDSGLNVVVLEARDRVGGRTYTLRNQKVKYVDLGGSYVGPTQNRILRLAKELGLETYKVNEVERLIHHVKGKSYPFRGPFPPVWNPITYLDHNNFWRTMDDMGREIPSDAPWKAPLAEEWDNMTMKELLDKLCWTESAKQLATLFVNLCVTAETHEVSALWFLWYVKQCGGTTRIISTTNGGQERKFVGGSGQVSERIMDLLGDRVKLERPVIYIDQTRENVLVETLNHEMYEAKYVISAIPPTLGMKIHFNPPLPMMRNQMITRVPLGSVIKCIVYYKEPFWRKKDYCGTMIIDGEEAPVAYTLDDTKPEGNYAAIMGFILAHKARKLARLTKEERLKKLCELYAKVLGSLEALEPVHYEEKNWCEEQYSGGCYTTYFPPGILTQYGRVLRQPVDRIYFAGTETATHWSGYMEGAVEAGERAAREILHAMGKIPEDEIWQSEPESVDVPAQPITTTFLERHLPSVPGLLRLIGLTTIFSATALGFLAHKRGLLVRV
Kind of series: Inhibition of human recombinant MAOB expressed in Pichia pastoris incubated for 15 mins prior to substrate addition measured after 30 mins by luminescence assay.

The target of series [2] is T2, MAO-B (amine oxidase [flavin-containing] B) (Homo sapiens, UniProt P27338).
T2 sequence (P27338 whole entry): T1 sequence (P27338 whole entry)
Kind of series: Inhibition of human recombinant MAOB expressed in Pichia pastoris at 100 uM incubated for 15 mins prior to substrate addition measured after 30 mins by luminescence assay.

A short description of series [3]: Inhibition of colony formation in mouse acute promyelocytic leukemic cell at 0.25 uM after 7 days by colony forming unit assay. Format: functional. Particulars: 168 h.
Series [4] in a line: Induction of cell differentiation in mouse acute promyelocytic leukemic cells. Format: functional.
Series [5] can be described thus: Induction of cell differentiation in human NB4 cells assessed as upregulation of CD11B expression. Particulars: NB-4. Format: functional, cell-based.

Regarding `N[C@H]1C[C@@H]1c1ccc(NC(=O)[C@H](Cc2ccccc2)NC(=O)OCc2ccccc2)cc1`, the IC50 in series [1] stood at 42.6 µM.

Turning to `N[C@H]1C[C@@H]1c1ccc(NC(=O)[C@@H](Cc2ccccc2)NC(=O)OCc2ccccc2)cc1`, the inhibition at 0.5 h, 100 µM in series [2] amounted to 14%.

In turn, `N[C@@H]1C[C@H]1c1ccc(NC(=O)[C@H](Cc2ccccc2)NC(=O)OCc2ccccc2)cc1` had an inhibition at 0.25 µM in series [3] of 59.2%. In addition, the IC50 in series [1] worked out at 32 µM.

For `N[C@@H]1C[C@H]1c1ccc(NC(=O)[C@@H](Cc2ccccc2)NC(=O)OCc2ccccc2)cc1`, testing at 0.25 µM in series [3] gave an inhibition of 59.6%. In addition, the inhibition at 0.5 h, 100 µM in series [2] was 33%.

Consider `Cl.NC1CC1c1ccc(NC(=O)C(Cc2ccccc2)NC(=O)OCc2ccccc2)cc1` (mixture of isomers), for which the Activity in series [4] and in series [5] was 77.9% in each case. The same compound displayed an inhibition at 0.25 µM in series [3] of 36.8%. The inhibition at 0.5 h, 100 µM in series [2] was determined as 40%.

In general, IC50 refers to the midpoint of a concentration-inhibition curve. A word on the inhibition: it is the change of the read-out against control, counted positive when it falls.
